“Also recorded” adds a separate entry of the source. Each block holds one compound with its values, some of them ahead of it.
Legend:
[1] = test system: Wnt mediated branching morphogenesis in cultured embryonic kidneys; details: cultured mouse embryonic kidneys; cited from earlier work
[2] = test system: regeneration of the tailfin (Wnt-dependent process); details: adult and juvenile fish, previously shown; cited from earlier work
[3] = test system: regeneration of the tailfin (Wnt-dependent process); assay: Zebrafish tailfin regeneration; format: in vivo
Text: Achieving transient repression of pathological Wnt response without incurring permanent damage to normal stem cell function is a key anticancer therapeutic goal.

[4] = S9 metabolism assay, murine liver S9 fractions; format: in vitro ADME, mouse; details: 2 μM, 37° C., NADPH-regenerating system
Description: S9 Metabolism Assay: Male ICR/CD-1 mouse S9 fractions were purchased from Celsis/In Vitro Technologies (Baltimore, Md.). 50 μL (1 mg) of S9 protein was added to a 15 mL glass screw cap tube. 700 μL of a 50 mM Tris, pH 7.5 solution, containing the compound of interest was added on ice. The final concentration of compound after addition of all reagents was 2 μM. 250 μL of an NADPH-regenerating system (1.7 mg/mL NADP, 7.8 mg/mL glucose-6-phosphate, 6 U/mL glucose-6-phosphate dehydrogenase in 2% w/v NaHCO3/10 mM MgCl2) was added and the tube placed in a 37° C. shaking water bath. At varying time points after addition of phase I cofactors, the reaction was stopped by the addition of 1 mL of methanol containing an internal standard compound, n-benzylbenzamide, and formic acid. The samples were incubated 10 min at room temperature and then spun once at 975×g in the glass tube. The supernatant was spun a second time at 16,000×g for 5 min in a microcentrifuge. The supernatant was analyzed by LC-MS/MS. Analytical methods were developed for each compound using an AB SCIEX 3200-QTrap, a combination triple quadrupole/ion trap instrument. Compound transitions utilized for quantitation were as follows: IWP-L6 (27): 473.2 to 303.1; aniline: 171.2 to 127.0; n-benzylbenzamide (internal standard): 212.1 to 91.1. […]

[5] = test system: posterior axis formation (Wnt/β-catenin dependent developmental process); assay: Zebrafish posterior axis formation assay; format: in vivo; details: zebrafish embryos, low micromolar concentrations, FIG. 7
Description: Zebrafish embryos harboring a mCherry-based reporter of Wnt/β-catenin signaling (Moro, et al., 2012) were treated with increasing concentrations of IWP-L6 (FIG. 3 Compound 27) in the aquarium water. Fluorescence intensity of animals was quantified as before (Dodge et al., 2012). (FIG. 7B) Activity of the IWP compounds IWP-L6 (Compound 27), 30, 32, and 35 was measured using the posterior axis formation assay.

[6] = test system: Wnt mediated branching morphogenesis in cultured embryonic kidneys; assay: Branching morphogenesis in cultured mouse embryonic kidneys; format: cell-based
Description: FIGS. 8A-B—(FIG. 8A) IWP-L6 (Compound 27) inhibits Wnt mediated branching morphogenesis in cultured embryonic kidneys. Hoxb7Cre; RosaTomato kidneys were dissected from E11.5 embryos and cultured at the air/media interface (Dodge, et al., 2012; Kamer, et al., 2010) Media was replaced every 24 hours. Images were captured every 24 hours using a Zeiss Lumar V12 fluorescent stereoscope. Magnitude: 80× at 0 hours and 24 hours; 60× at 48 hours. (FIG. 8B) The fold increase in the number of ureteric bud tips between time=0 and 48 hours for each treatment was quantified. Statistics were performed using Student T-test.
IWP2 (2) has been previously shown to specifically and reversibly block Wnt signaling and Wnt mediated branching morphogenesis in cultured mouse embryonic kidneys (Kamer, et al., 2010; Dodge, et al., 2012, which are incorporated by reference herein). […] Embryonic day (E) 11.5 kidneys in media containing various doses (1 nM to 1 μM) of IWP-L6 (27) were cultured. […] In comparison, a dose of 5 μM of IWP-2 (2) was required to obtain similar results (Dodge, et al., 2012; Karner, et al., 2010).

[7] = test system: cell-autonomous Wnt signaling in mouse fibroblasts (L cells); assay: Wnt signaling / Porcn-inhibiting activity, EC50 in mouse fibroblasts (L cells); format: cell-based
Text: The four IWP lead compounds (1-4) were identified in the initial screen of 200,000 compounds (ChemDiv, ChemBridge, ComGenex, Prestwick and TimTek libraries) bear similar molecular skeletons (FIG. 1). […] The phthalazinone moiety of IWP-1 (1) and pyrimidinone moiety of IWP-2-4 (2-4) can be considered to be exchangeable scaffolding motifs for the compounds. The benzothiazole moiety appears to be a conserved motif and the phenyl group tolerates both electronic and steric perturbations.
While there is only 69% sequence identity between mouse Porcn and zebrafish Porcn, the in vitro EC50 values (FIG. 3) measured in mouse fibroblasts (L cells) correlate with the in vivo activity observed in fish but not linearly.

Relative solubility = format: physicochemical
[8] = Plasma metabolism assay, murine plasma; format: in vitro ADME, mouse
Description: (§1) Plasma Metabolism Assay: Murine, rat, and human plasma, collected using acidified citrate dextrose (ACD) anticoagulant, were purchased from Bioreclamation (Westbury, N.Y.). IWP-L6 (27) was added to 1 mL of each plasma at a final concentration of 2 μM, the material was aliquoted into eppendorf tubes, and then incubated for the indicated time points in a 37° C. water bath. At each time point, an aliquot was removed and protein precipitated and compound extracted and analyzed as described above.

[9] = Plasma metabolism assay, rat plasma; format: in vitro ADME
Description: as §1

[10] = test system: phosphorylation of dishevelled 2 (Dv12) in HEK293 cells; assay: Phosphorylation of dishevelled 2 in HEK293 cells (gel electrophoresis); format: cell-based
Text: FIG. 4—The Porcn inhibitor, IWP-L6 (FIG. 3 Compound 27), blocks the phosphorylation of the cytoplasmic Wnt pathway effector Dv12 shown through gel electrophoresis.
Among the five newly identified sub-nanomolar IWPs, compound 27 was selected for further biological evaluations and named IWP-L6. […] The in vivo stability of IWP-L6 (27) (FIG. 5) was further profiled. […] The major metabolites are the amide cleavage products. Similar species-dependent metabolitic profiles due to the involvement of carboxylesterase (CES) have been reported with other drug candidates (Eng, et al., 2010; Liu, et al., 2011) These observations are consistent with the elevated activity of CES in mouse and rat but not human (Berry, et al., 2009; Rudakova, et al., 2011; Bahar, et al., 2012).

[11] = Plasma metabolism assay, human plasma; format: in vitro ADME; details: over 24 h; 2 μM, 37° C.
Description: as §1

Structure (SMILES): Cc1ccc2nc(NC(=O)CSc3nc4c(c(=O)n3-c3ccccc3)SCC4)sc2c1 [IWP-2]
- dose required to obtain similar results (block of branching morphogenesis) [1]: 5 µM

Structure (SMILES): Cc1ccc2nc(NC(=O)CSc3nc4c(c(=O)n3C)SC(C)C4)sc2c1 (centres unmarked) [IWP-12]
- block of tailfin regeneration [2]: effectively block

- t1/2 in murine liver S9 fractions [4]: 26 min
- solubility relative to IWP-2 (2) and 20 (Relative solubility): more soluble
- t1/2 in murine plasma ([8]; 2 μM, 37° C.): 2 min
- degradation in mouse plasma (in words) ([8]; as a function of time, FIG. 5): much more significant degradation
- t1/2 in rat plasma ([9]; 2 μM, 37° C.): 190 min
- degradation in rat plasma (in words) ([9]; as a function of time, FIG. 5): much more significant degradation
Structure (SMILES): O=C(CSc1nc2c(c(=O)n1-c1ccccc1)SCC2)Nc1ccc(-c2ccccc2)cn1 [IWP-L6]
- fin regeneration after chemical removal ([3]; resected caudal fins, 7 d in water containing compound, then removal): nearly normal levels
- inhibition of tailfin regeneration (comparison in words) ([3]; zebrafish, FIG. 6): more potent activity; also recorded: more significant
- inhibition of posterior axis formation [5]: effectively inhibit; also recorded: inhibits
- dose that completely blocked branching morphogenesis ([6]; E11.5 kidneys): ≥ 50 nM
- dose that significantly reduced branching morphogenesis ([6]; E11.5 kidneys, relative to DMSO treated controls): ≥ 10 nM
- inhibition of Wnt mediated branching morphogenesis (in words) ([6]; FIG. 8A): inhibits
- potency relative to IWP-2 (2) ([6]; cultured E11.5 mouse kidneys): at least 100 times
- EC50 (in words) [7]: sub-nanomolar
- Porcn-inhibiting activity (in words) ([7]; general structure C, FIG. 3 series): slight improvement of activity
- suppression of phosphorylation of dishevelled 2 (Dv12) [10]: effectively suppressed; also recorded: blocks
- stability in human plasma [11]: stable; also recorded: little degradation

Structure (SMILES): O=C(Nc1cccc2cccnc12)c1ccc(N2C(=O)[C@@H]3[C@H](C2=O)[C@@H]2C=C[C@H]3C2)cc1 [IWR-1]
- block of tailfin regeneration [2]: effectively block

— patent US9783550B2, “Highly potent inhibitors of porcupine” (The Board of Regents of the University of Texas System, priority 2013, dated 2017)
